Measurements as given in US20080221193A1, “3-AMINO CHROMANE DERIVATIVES” (Wyeth, priority 2006, published 2008).

Experiments:
human 5-HT1A receptors [1] = target: T1, human 5-HT1A receptors (Homo sapiens, UniProt P08908); test: 8-OH-DPAT binding in CHO cells stably transfected with human 5HT1a receptor; conditions: displacement of [3H]8-OH-DPAT, CHO cells with human 5-HT1A; read-out: 5-HT1A Receptor Affinity Ki
T1 construct: expressed in transfected cells; host or cells: CHO cells, stably transfected
T1 sequence (P08908 1-422): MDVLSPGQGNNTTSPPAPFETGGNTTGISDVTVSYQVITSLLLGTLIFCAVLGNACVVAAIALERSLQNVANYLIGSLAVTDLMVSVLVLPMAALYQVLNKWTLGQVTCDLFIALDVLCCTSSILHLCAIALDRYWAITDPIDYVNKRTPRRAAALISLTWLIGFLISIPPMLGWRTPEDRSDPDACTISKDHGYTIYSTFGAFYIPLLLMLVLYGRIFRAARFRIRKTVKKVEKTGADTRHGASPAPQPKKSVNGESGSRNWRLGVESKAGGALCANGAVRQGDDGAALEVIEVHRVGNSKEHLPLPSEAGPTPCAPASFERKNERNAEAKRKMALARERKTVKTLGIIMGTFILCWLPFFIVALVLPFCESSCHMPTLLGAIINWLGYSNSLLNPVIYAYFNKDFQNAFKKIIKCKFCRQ
Method: High affinity for the serotonin 5-HT1A receptor was established by testing the claimed compound's ability to displace [^3H] 8-OH-DPAT (dipropylaminotetralin) from the 5-HT1A serotonin receptor following a modification of the procedure of Hall et al., (J. Neurochem., 1985, 44: 1685) which utilizes CHO cells stably transfected with human 5-HT1A receptors.
Stabily transfected CHO cells were grown in DMEM containing 10% heat inactivated FBS and non-essential amino acids. Cells were scraped off the plate, transferred to centrifuge tubes, and washed twice by centrifugation (2000 rpm for 10 min., 4° C.) in buffer (50 mM Tris pH 7.5). The resulting pellets were aliquoted and placed at −80° C. On day of assay, the cells were thawed on ice, and resuspended in buffer. The binding assay was performed in a 96 well microtiter plate in a total volume of […].
Non-specific binding was determined in the presence of […] 5HT, final ligand concentration is 1.5 nM. Following a 30 minute incubation at room temperature, the reaction was terminated by the addition of ice cold buffer and rapid filtration through a GF/B filter presoaked for 30 minutes in 0.5% PEI. Compounds were initially tested in a single point assay to determine percent inhibition at […]. Subsequently, Ki values were determined for compounds defined to be active.

human 5-HT1A receptors [2] = target: T1, human 5-HT1A receptors; test: 35S-GTPγS binding assay, membranes containing cloned human 5-HT1A receptors; format: biochemical; conditions: read-out: 5-HT1A Function GTPγS IC50
Excerpt: (§1) The agonist or antagonist activity at 5-HT1A receptors was established by using two different assays. The ^35S-GTPγS binding assay similar to that used by Lazareno and Birdsall (Br. J. Pharmacol., 1993, 109: 1120) was used to determine the test compound's ability to affect the binding of ^35S-GTPγS to membranes containing cloned human 5-HT1A receptors. Agonists produce an increase in binding whereas antagonists produce no increase but rather reverse the effects of the standard agonist 8-OH-DPAT. The test compound's maximum stimulatory effect is represented as the Emax, while its potency is defined by the EC50. The test compound's maximum inhibitory effect is represented as the Imax, while its potency is defined by the IC50. The second assay measured cAMP accumulation upon binding of the ligand to the 5-HT1A receptor. Antagonists block the effect of the standard agonist 8-OH-DPAT resulting in an increase in cAMP accumulation while agonists have the reverse effect. The test compound's maximum stimulatory or inhibitory effect is represented as the Emax while its potency is defined by either IC50 for an antagonist or EC50 for an agonist. [^3H]-8-OH-DPAT was used to determine maximum agonist or antagonist response in both functional assays.

h5-HT Transporter = h5-HT Transporter (Homo sapiens, UniProt P31645); test: h5-HT Transporter Function (Table 1); format: biochemical
h5-HT Transporter, sequence (P31645 whole entry): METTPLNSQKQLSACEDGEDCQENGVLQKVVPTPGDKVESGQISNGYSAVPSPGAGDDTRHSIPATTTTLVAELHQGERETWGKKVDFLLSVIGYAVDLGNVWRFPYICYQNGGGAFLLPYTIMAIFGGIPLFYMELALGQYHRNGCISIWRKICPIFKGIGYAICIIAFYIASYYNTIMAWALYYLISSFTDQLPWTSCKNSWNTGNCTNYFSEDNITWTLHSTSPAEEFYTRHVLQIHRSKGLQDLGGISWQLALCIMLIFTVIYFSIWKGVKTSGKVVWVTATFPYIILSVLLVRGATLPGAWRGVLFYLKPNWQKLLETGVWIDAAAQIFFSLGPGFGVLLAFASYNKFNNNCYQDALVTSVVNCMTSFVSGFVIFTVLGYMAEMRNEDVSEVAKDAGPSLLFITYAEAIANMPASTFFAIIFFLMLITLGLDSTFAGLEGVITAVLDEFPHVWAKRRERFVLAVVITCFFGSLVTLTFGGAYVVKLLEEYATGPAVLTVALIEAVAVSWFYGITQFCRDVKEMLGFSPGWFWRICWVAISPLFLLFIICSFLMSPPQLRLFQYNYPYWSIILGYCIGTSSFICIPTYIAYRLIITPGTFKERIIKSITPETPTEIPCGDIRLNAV

h5HT1a receptor = target: T2, h5HT1a receptor (Homo sapiens, UniProt P08908); test: cAMP RIA in CHO cells stably transfected with the h5HT1a receptor; format: cell-based; conditions: for EC50: agonist, forskolin-stimulated cAMP, read-out: 5-HT1A Function cAMP EC50; for IC50: antagonist, reversal of agonist 8-OH-DPAT, read-out: 5-HT1A Function cAMP IC50
T2 construct: expressed in transfected cells; host or cells: CHO cells, stably transfected
T2 sequence (P08908 1-422): T1 sequence (P08908 1-422)
Excerpt: as §1
Stabily transfected CHO cells were grown in DMEM containing 10% heat inactivated FBS and non-essential amino acids. The cells were plated at a density of 10(6) cells per well in a 24 well plate and incubated for 2 days in a CO2 incubator. On the second day, the media was replaced with 0.5 ml treatment buffer (DMEM+25 mM HEPES, 5 mM theophylline, 10 uM pargyline) and incubated 10 minutes at 37° C.
Wells were treated with forskolin (1 μM final conc) followed immediately by test compound (0.1 and 1 uM for initial screen) and incubated for an additional 10 min at 37° C. The reaction was terminated by removal of the media and addition of 0.5 ml ice cold assay buffer (supplied in RIA kit). Plates were stored at −20° C. prior to assessment of cAMP formation by RIA.
Compounds shown to have no agonist activities were further analyzed for ability to reverse agonist activity. In separate experiments, 6 concentrations of antagonist were preincubated for 20 minutes prior to the addition of agonist and forskolin. Cells were harvested as described. The cAMP kit was supplied by Amersham and the RIA was performed as per kit instructions.

| Compound | Ki (human 5-HT1A receptors [1]) | IC50 (human 5-HT1A receptors [2]) | IC50 (h5-HT Transporter) | EC50 (h5HT1a receptor) | IC50 (h5HT1a receptor) |
| --- | --- | --- | --- | --- | --- |
| CNC(=O)c1ccc(OC)c2c1C[C@@H](N(CCCc1c[nH]c3ccc(F)cc13)C1CCC1)CO2 [Example 16, (3R)-3-{cyclobutyl[3-(5-fluoro-1H-indol-3-yl)propyl]amino}-8-methoxychromane-5-methylcarboxamide] | 570 nM | 738 nM | 55 nM | 323 nM |  |
| CCc1ccc(C(N)=O)c2c1OC[C@H](N(CCCc1c[nH]c3ccc(F)cc13)C1CCC1)C2 [Example 21, (3R)-3-{cyclobutyl[3-(5-fluoro-1H-indol-3-yl)propyl]amino}-8-ethylchromane-5-carboxamide] | 5.93 nM | 724 nM | 90.4 nM | 15.6 nM |  |
| CNc1ccc(C(N)=O)c2c1OC[C@H](N(CCCc1c[nH]c3ccc(F)cc13)C1CCC1)C2 [Example 25, (3R)-3-{cyclobutyl[3-(5-fluoro-1H-indol-3-yl)propyl]amino}-8-(methylamino)-chromane-5-carboxamide] | 51.5 nM | 3550 nM | 137 nM |  | 140 nM |

The next lines start with the values.

| Ki (human 5-HT1A receptors [1]) | IC50 (human 5-HT1A receptors [2]) | IC50 (h5-HT Transporter) | EC50 (h5HT1a receptor) | IC50 (h5HT1a receptor) | Compound |
| --- | --- | --- | --- | --- | --- |
| 4.26 nM | 311 nM | 52.2 nM | 51.8 nM |  | Cc1ccc(C(N)=O)c2c1OC[C@H](N(CCCc1c[nH]c3ccc(F)cc13)C1CCC1)C2 [Example 20, (3R)-3-{cyclobutyl[3-(5-fluoro-1H-indol-3-yl)propyl]amino}-8-methylchromane-5-carboxamide] |
| 16.9 nM | 1180 nM | 364 nM |  | 59.8 nM | CSc1ccc(C(N)=O)c2c1OC[C@H](N(CCCc1c[nH]c3ccc(F)cc13)C1CCC1)C2 [Example 22, (3R)-3-{cyclobutyl[3-(5-fluoro-1H-indol-3-yl)propyl]amino}-8-(methylthio)chromane-5-carboxamide] |
